Laboratory results taken from PMC11861483, “Genetic characterization of the AHAS mutant line K4 with resistance to AHAS-inhibitor herbicides in rapeseed (Brassica napus L.)” (Stress Biology, 2025).
pKd: −log10 of the molar value.

Target: T1, BnAHAS3 (ZS9) (Brassica napus, UniProt P27819)
T1 construct: native, isolated and purified from total protein of ZS9 seedlings; AHAS on SDS-PAGE about 58-66 kD; immobilised on CM5 chip
T1 sequence (P27819 70-652): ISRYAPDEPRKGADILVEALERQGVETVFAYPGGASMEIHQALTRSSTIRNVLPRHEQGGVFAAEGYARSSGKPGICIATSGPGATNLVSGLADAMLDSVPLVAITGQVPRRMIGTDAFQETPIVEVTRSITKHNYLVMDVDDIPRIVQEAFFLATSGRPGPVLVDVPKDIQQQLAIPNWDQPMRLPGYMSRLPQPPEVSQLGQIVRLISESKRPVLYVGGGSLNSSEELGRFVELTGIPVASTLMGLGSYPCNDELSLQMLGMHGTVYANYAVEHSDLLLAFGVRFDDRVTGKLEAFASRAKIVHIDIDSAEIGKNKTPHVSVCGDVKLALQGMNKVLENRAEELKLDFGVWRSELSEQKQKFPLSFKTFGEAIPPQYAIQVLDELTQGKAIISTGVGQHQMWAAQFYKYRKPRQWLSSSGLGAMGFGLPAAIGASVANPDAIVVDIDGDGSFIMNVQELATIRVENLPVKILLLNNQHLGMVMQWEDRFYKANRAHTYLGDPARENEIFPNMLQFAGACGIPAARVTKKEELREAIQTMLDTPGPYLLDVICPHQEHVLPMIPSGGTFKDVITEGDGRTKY
Test: surface plasmon resonance (Biacore T200, CM5 chip), kinetic fit kd/ka
Assay type: binding
Conditions: read-out: Tribenuron-methyl / KD
Text: surface plasmon resonance (Biacore T200, CM5 chip), kinetic fit kd/ka on BnAHAS3 (ZS9)

Work on `COC(=O)c1ccccc1S(=O)(=O)NC(=O)N(C)c1nc(C)nc(OC)n1` [tribenuron-methyl] yielded a pKd of 4.48.
